Measurements published in patent US20060058320A1, “[1,2,4] Triazolo[1,5-c]pyrimidine derivatives” (KYOWA HAKKO KOGYO CO., LTD., priority 2002, published 2006).
Counter-ions that a name gives are not always drawn.

Tests used:
adenosine A2A receptor = target: T1, adenosine A2A receptor (Rattus norvegicus, UniProt P30543); assay: Adenosine A2A receptor binding test (3H-CGS 21680 binding); conditions: test compound 10^−7 mol/L; 3H-CGS 21680 binding, rat corpus striatum; read-out: A2A Receptor inhibition rate (%) at 10^−7 mol/L
T1 construct: from tissue; host or cells: rat corpus striatum membrane preparation
T1 sequence (P30543 whole entry): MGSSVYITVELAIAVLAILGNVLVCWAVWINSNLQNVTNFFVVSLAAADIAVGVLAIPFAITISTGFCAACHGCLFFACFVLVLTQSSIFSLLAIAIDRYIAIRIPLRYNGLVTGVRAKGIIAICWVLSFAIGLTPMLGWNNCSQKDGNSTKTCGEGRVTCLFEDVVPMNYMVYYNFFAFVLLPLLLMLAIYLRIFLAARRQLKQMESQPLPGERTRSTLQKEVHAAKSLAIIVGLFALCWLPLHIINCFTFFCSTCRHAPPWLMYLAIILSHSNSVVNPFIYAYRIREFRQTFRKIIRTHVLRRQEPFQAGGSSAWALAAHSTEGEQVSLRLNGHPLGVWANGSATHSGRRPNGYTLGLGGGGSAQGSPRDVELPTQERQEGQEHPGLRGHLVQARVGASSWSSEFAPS
Experimental: The test was carried out according to the method of Bruns et al. [Molecular Pharmacology, vol. 29, p.
Rat corpus striatum was suspended in an ice-cold 50 mmol/L tris(hydroxymethyl)aminomethane hydrochloride (referred to as “Tris HCl” hereinafter) buffer (pH 7.7) using a Polytron homogenizer (produced by Kinematica Co.). The suspension was centrifuged (50,000×g, 10 minutes), and the resulting precipitate was again suspended in the same amount of a 50 mmol/L Tris HCl buffer, followed by centrifugation under the same conditions. The resulting finalprecipitate was again suspended in a 50 mmol/L-Tris HCl buffer [containing 10 mmol/L of magnesium chloride and 0.02 unit/mg tissue of adenosine deaminase (produced by Sigma Co.)] so that the tissue concentration was 5 mg (wet weight)/mL.
The radioactivity on the filter was determined with a liquid scintillation counter (produced by Packard Instrument Co.).
In the equation, X represents Amount of binding in the presence of a medicament, Y represents Amount of nonspecific binding, and Z represents Amount of total binding.

CC(=O)NCCNCc1ccc(-c2cc3nc(-c4ccco4)nn3c(N)n2)cc1 [Compound 16, 7-{4-[2-(N-acetylamino)ethylaminomethyl]phenyl}-5-amino-2-(2-furyl)[1,2,4]triazolo[1,5-c]pyrimidine monohydrochloride]
inhibition at 0.1 µM (adenosine A2A receptor): 36%

CN(Cc1ccccc1)C(=O)c1cc2nc(-c3ccco3)nn2c(N)n1 (as salt: HCl) [Compound 78, 5-Amino-2-(2-furyl)[1,2,4]triazolo[1,5-c]pyrimidine-7-carboxylic acid (N-benzyl-N-methyl)amide]
melting point: 188.5 to 189.1 °C

Nc1nc(-c2ccncc2)cc2nc(-c3ccco3)nn12 [Compound 54, 5-Amino-2-(2-furyl)-7-(4-pyridyl)[1,2,4]triazolo[1,5-c]-pyrimidine]
melting point: 279.2 to 279.9 °C

COCCN(CCOC)C(=O)c1cc2nc(-c3ccco3)nn2c(N)n1 [Compound 88, 5-Amino-2-(2-furyl)[1,2,4]triazolo[1,5-c]pyrimidine-7-carboxylic acid [N,N-bis(2-methoxyethyl)]amide]
melting point: 190.5 to 190.8 °C

Nc1nc(COc2cccnc2)cc2nc(-c3ccco3)nn12 [Compound 31, 5-Amino-2-(2-furyl)-7-(pyridin-3-yloxymethyl)[1,2,4]triazolo[1,5-c]pyrimidine]
melting point: 253.5 to 254 °C

Nc1nc(COc2ccncc2)cc2nc(-c3ccco3)nn12 [Compound 33, 5-Amino-2-(2-furyl)-7-(pyridin-4-yloxymethyl)[1,2,4]-triazolo[1,5-c]pyrimidine]
melting point: > 300 °C

Nc1nc(COc2cccc(Br)c2)cc2nc(-c3ccco3)nn12
melting point: 261.5 to 261.9 °C

CCN1CCN(Cc2ccc(-c3cc4nc(-c5ccco5)nn4c(N)n3)cc2)CC1 (as salt: hydrochloride)
melting point: 265 °C (dec.)

Nc1nc(C2=CCN(CC(F)(F)F)CC2)cc2nc(-c3ccco3)nn12
melting point: 247.5 to 248.2 °C (dec.)

CC(=O)NCCNC(=O)c1cc2nc(-c3ccco3)nn2c(N)n1
melting point: 233.8 to 234 °C

Nc1nc(C(=O)NCCCn2ccnc2)cc2nc(-c3ccco3)nn12 [Compound 90, 5-Amino-2-(2-furyl)[1,2,4]triazolo[1,5-c]pyrimidine-7-carboxylic acid [3-(1-imidazolyl)propyl]amide]
melting point: 198.5 to 198.8 °C

CCOCc1cc2nc(-c3ccco3)nn2c(N)n1 [Compound 24, 5-Amino-7-ethoxymethyl-2-(2-furyl) [1,2,4]triazolo[1,5-c]pyrimidine]
melting point: 153.8 to 154.6 °C

COc1ccc(CNCc2ccc(-c3cc4nc(-c5ccco5)nn4c(N)n3)cc2)cc1OC (as salt: hydrochloride)
melting point: 256.2 to 256.8 °C

CC(=O)NCCNCc1ccc(-c2cc3nc(-c4ccco4)nn3c(N)n2)cc1 (as salt: hydrochloride) [Compound 16, 7-{4-[2-(N-acetylamino)ethylaminomethyl]phenyl}-5-amino-2-(2-furyl)[1,2,4]triazolo[1,5-c]pyrimidine monohydrochloride]
melting point: 238.5 to 240 °C

Nc1nc(-c2ccc(CO)cc2)cc2nc(-c3ccco3)nn12 [Compound 61, 5-Amino-2-(2-furyl)-7-(4-hydroxymethylphenyl)[1,2,4]-triazolo[1,5-c]pyrimidine]
melting point: 239.6 to 239.9 °C

Nc1nc(CNCCCN2CCCC2=O)cc2nc(-c3ccco3)nn12 (as salt: hydrochloride) [Compound 47, 5-Amino-2-(2-furyl)-7-[3-(2-oxopyrrolidin-1-yl)propylamino-methyl][1,2,4]triazolo[1,5-c]pyrimidine dihydrochloride]
melting point: 229.1 to 229.8 °C

Nc1nc(COc2ccccc2F)cc2nc(-c3ccco3)nn12 [Compound 30, 5-Amino-7-(2-fluorophenoxymethyl)-2-(2-furyl) [1,2,4]-triazolo[1,5-c]pyrimidine]
melting point: 196.8 to 197.1 °C

Nc1nc(Cn2ccccc2=O)cc2nc(-c3ccco3)nn12 [Compound 37, 5-Amino-2-(2-furyl)-7-(2-oxopyridin-1-ylmethyl)[1,2,4]-triazolo[1,5-c]pyrimidine]
melting point: 239.2 to 239.6 °C

Nc1nc(-c2ccccc2CNCCc2ccccn2)cc2nc(-c3ccco3)nn12 [Compound 4, 5-Amino-2-(2-furyl)-7-{2-[2-(2-pyridyl)ethylaminomethyl]-phenyl}[1,2,4]triazolo[1,5-c]pyrimidine]
melting point: 179.2 to 180 °C

CC(C)(O)CN1CC=C(c2cc3nc(-c4ccco4)nn3c(N)n2)CC1
melting point: 197.8 to 198.1 °C

Nc1nc(-c2ccc(CNCCCN3CCCC3=O)cc2)cc2nc(-c3ccco3)nn12 (as salt: hydrochloride) [Compound 14, 5-Amino-2-(2-furyl)-7-{4-[3-(2-oxopyrrolidin-1-yl)propylaminomethyl]phenyl}[1,2,4]triazolo[1,5-c]pyrimidine monohydrochloride]
melting point: 269.2 to 269.8 °C

CCNC(=O)c1cc2nc(-c3ccco3)nn2c(N)n1 [Compound 98, 5-Amino-2-(2-furyl)[1,2,4]triazolo[1,5-c]pyrimidine-7-carboxylic acid ethylamide]
melting point: 178.5 to 178.9 °C

Nc1nc(-c2ccco2)cc2nc(-c3ccco3)nn12
melting point: 250.2 to 250.4 °C

Nc1nc(CN2CCN(CC3CC3)CC2)cc2nc(-c3ccco3)nn12 (as salt: hydrochloride) [Compound 50, 5-Amino-7-[4-(cyclopropylmethyl)piperazin-1-ylmethyl]-2-(2-furyl)[1,2,4]triazolo[1,5-c]pyrimidine dihydrochloride]
melting point: 270 °C (dec.)

Nc1nc(C2=CCN(CC3CC3)CC2)cc2nc(-c3ccco3)nn12
melting point: 196.9 to 197.4 °C

Nc1nc(C(=O)NCc2ccc(F)c(F)c2)cc2nc(-c3ccco3)nn12 [Compound 82, 5-Amino-2-(2-furyl)[1,2,4]triazolo[1,5-c]pyrimidine-7-carboxylic acid (3,4-difluorobenzyl)amide]
melting point: 254.5 to 254.9 °C

COCC(C)NCc1ccccc1-c1cc2nc(-c3ccco3)nn2c(N)n1 (racemic) (as salt: hydrochloride) [Compound 9, (±)-5-Amino-2-(2-furyl)-7-[{2-[(2-methoxy-1-methylethyl)aminomethyl]phenyl}(1,2,4]triazolo[1,5-c]pyrimidinemonohydrochloride]
melting point: 178.9 to 179.7 °C

Nc1nc(-c2cccc(CNCCc3ccccn3)c2)cc2nc(-c3ccco3)nn12 [Compound 19, 5-Amino-2-(2-furyl)-7-{3-[2-(2-pyridyl)ethylaminomethyl]-phenyl}[1,2,4]triazolo[1,5-c]pyrimidine]
melting point: 159.2 to 159.4 °C

Nc1nc(CNCCc2ccccn2)cc2nc(-c3ccco3)nn12 (as salt: hydrochloride) [Compound 44, 5-Amino-7-[2-(2-pyridyl)ethylaminomethyl]-2-(2-furyl)-[1,2,4]triazolo[1,5-c]pyrimidine dihydrochloride]
melting point: 249.5 to 249.7 °C

COc1ccc(CNCc2ccccc2-c2cc3nc(-c4ccco4)nn3c(N)n2)cc1OC [Compound 3, 5-Amino-7-[2-(3,4-dimethoxybenzylaminomethyl)phenyl]-2-(2-furyl) [1,2,4]triazolo[1,5-c]pyrimidine]
melting point: 168 to 168.7 °C

COc1cc(CNCc2cc3nc(-c4ccco4)nn3c(N)n2)cc(OC)c1 (as salt: hydrochloride) [Compound 43, 5-Amino-7-[(3,5-dimethoxybenzylamino)methyl]-2-(2-furyl)-[1,2,4]triazolo[1,5-c]pyrimidine dihydrochloride]
melting point: 238.5 to 238.7 °C

Nc1nc(-c2ccccc2C=O)cc2nc(-c3ccco3)nn12 [Compound 2, 5-Amino-7-(2-formylphenyl)-2-(2-furyl)[1,2,4]triazolo[1,5-c]pyrimidine]
melting point: 224 to 224.5 °C

COc1cc(CNCc2ccc(-c3cc4nc(-c5ccco5)nn4c(N)n3)cc2)cc(OC)c1 (as salt: hydrochloride) [Compound 17, 5-Amino-7-[4-(3,5-dimethoxybenzylaminomethyl)phenyl]-2-(2-furyl)[1,2,4]triazolo[1,5-c]pyrimidine monohydrochloride]
melting point: 224.6 to 225.2 °C

Nc1nc(-c2ccc(C=O)cc2)cc2nc(-c3ccco3)nn12 [Compound 10, 5-Amino-7-(4-formylphenyl)-2-(2-furyl)[1,2,4]triazolo[1,5-c]pyrimidine]
melting point: 273.5 to 274 °C

COCc1cc2nc(-c3ccco3)nn2c(N)n1 [Compound 23, 5-Amino-2-(2-furyl)-7-methoxymethyl[1,2,4]triazolo[1,5-c]pyrimidine]
melting point: 167.2 to 167.6 °C

CC(=O)NCCNCc1ccccc1-c1cc2nc(-c3ccco3)nn2c(N)n1 (as salt: hydrochloride) [Compound 7, 5-Amino-7-{2-[2-(N-acetylamino)ethylaminomethyl]phenyl}-2-(2-furyl)[1,2,4]triazolo[1,5-c]pyrimidine monohydrochloride]
melting point: 230.8 to 231.3 °C

CN(C)CCN(Cc1ccccc1)C(=O)c1cc2nc(-c3ccco3)nn2c(N)n1
melting point: 215.2 to 215.4 °C

Nc1nc(-c2cncnc2)cc2nc(-c3ccco3)nn12 [Compound 56, 5-Amino-2-(2-furyl)-7-(5-pyrimidinyl)[1,2,4]triazolo[1,5-c]-pyrimidine]
melting point: 271 °C (dec.)

CCN1CCN(Cc2ccccc2-c2cc3nc(-c4ccco4)nn3c(N)n2)CC1 (as salt: hydrochloride)
melting point: 253 to 253.4 °C
